One data set has as its system HOC-22 ovarian carcinoma. Briefly: human orthotopic ovarian carcinoma mouse xenograft model HOC-22, survival. In kind it is in vivo. The following applies: versus vehicle/control mice (median survival 30 days); RO 28-2653 45 mg/kg oral daily six times a week, day 7 to 21; Cisplatin 4 doses of 3 mg/kg i.v. every 4 days from day 7. The method, then:
DDP=Cisplatin. […] Statistics was calculated using the log rank test. […] Cisplatin treatment consisted of 4 doses of 3 mg/kg i.v. per mouse once every 4 days, starting on day 7.

Data set [1] relates to MatLyLu prostate carcinoma. Briefly: rat syngeneic orthotopic prostate carcinoma model MatLyLu, primary tumor size. In kind it is in vivo. The following applies: as compared to vehicle-treated animals; RO 28-2653 100 mg/kg oral daily, Etoposide 25 mg/m^2 i.p. once daily, day 6 to day 17. Here is the method:
Etoposide was given intraperitoneally once daily, from day 6 to day 17, at a dose of 25 mg/m^2.

Data set [2] has as its system PancTul pancreas carcinoma. The note with it: for inhibition of primary tumor growth: RO 28-2653 45 mg/kg oral daily day 7 to 30; for inhibition of primary tumor growth / Volume Primary tumor (Vm) / average number of metastases per animal: Gemcitabine 2.2 mg/kg i.p. every second day, day 7 to 30; for Volume Primary tumor (Vm) / average number of metastases per animal: RO 28-2653 45 mg/kg oral daily; for Metastasis Diaphragm / Metastasis Kidneys/Adrenal gland (capsule) / Metastasis Ligament of the uterus/testis (serosa), seminal vesicles / Metastasis Liver hilus / Metastasis Liver, in parenchyme / Metastasis Liver, on serosa / Metastasis Lung/Mediastinum / Metastasis Lymph nodes in mesentery / Metastasis Mesentery 3-20 metastasis(1-18 mm^3) / Metastasis Mesentery < 3 metastasis(^2 mm^3) / Metastasis Pelvis / Metastasis Site of surgical incision Large 80-280 mm^3 / Metastasis Site of surgical incision Medium < 50 mm^3 / Metastasis Site of surgical incision Small < 10 mm^3 / Metastasis Spleen (serosa), gastrosplenic ligament: animals with metastasis / animals in group; for Necrosis Primary tumor: animals with necrosis / animals in group; for Tumor take rate Primary tumor: animals with tumor / animals in group; for Body weight (m): mean change (spread).
Procedure: The activity of RO 28-2653 in combination with Gemcitabine was evaluated in the human orthotopic pancreas carcinoma mouse xenograft model PancTul with primary tumor size and number and size of metastases as endpoints.
Effect of the combination of RO 28-2653 and Gemcitabine on primary tumor volume in the orthotopic PancTul pancreas cancer xenograft model. Mice were treated with RO 28-2653 with daily oral doses of 45 mg/kg from day 7 until day 30. Gemcitabine treatment consisted of one intraperitoneal dose of 2.2 mg/kg every second day from day 7 to day 30.
Effect of the combination of RO 28-2653 and Gemcitabine on metastatic spread in the orthotopic PancTul pancreas cancer xenograft model. Mice were treated with RO 28-2653 with daily oral doses of 45 mg/kg from day 7 until day 30. Gemcitabine treatment consisted of one intraperitoneal dose of 2.2 mg/kg every second day from day 7 to day 30.

Data set [3] in a line: toxicological tests over a wide range of doses. In kind it is in vivo. The following applies: side effects like those of broad-spectrum MMP inhibitors. An excerpt: Thus, no dose-limiting toxicities were expected with RO 28-2653, and accordingly no additional benefit from co-treatment with cytostatic/cytotoxic drugs was expected. However, to explore also the distant possibility of an additional benefit from combination treatment, such studies were initiated and conducted in various animal models. The models and cytostatic/cytotoxic drugs were chosen to reflect as broad a spectrum of oncological indications and clinically active treatment principles as possible.

Take `N.N.[Cl][Pt][Cl]` [Cisplatin, reference compound]: in the data set with HOC-22 ovarian carcinoma, the increase in lifespan came to 95%.

As for `COc1cc([C@@H]2c3cc4c(cc3[C@@H](O[C@@H]3O[C@@H]5CO[C@@H](C)O[C@H]5[C@H](O)[C@H]3O)[C@H]3COC(=O)[C@H]23)OCO4)cc(OC)c1O` [Etoposide, reference compound], the “inhibition of primary tumor growth” value in data set [1] is listed as 35%.

In the case of `Nc1ccn([C@@H]2O[C@H](CO)[C@@H](O)C2(F)F)c(=O)n1` [Gemcitabine, reference compound], in data set [2], the “inhibition of primary tumor growth” value was 85%, the “Volume Primary tumor (Vm)” value is on record as “Vm = 51 (±14) mm^3”, the “average number of metastases per animal” value is given as 0.4 metastases per animal and the “Metastasis Diaphragm” value is reported as 0/13. In addition, in data set [2], the “Metastasis Kidneys/Adrenal gland (capsule)” value is given as 0/13; the “Metastasis Ligament of the uterus/testis (serosa), seminal vesicles” value is recorded as 0/13; the “Metastasis Liver hilus” value is given as 0/13; the “Metastasis Liver, in parenchyme” value was 1/13. In data set [2], the “Metastasis Liver, on serosa” value is recorded as 1/13; the “Metastasis Lung/Mediastinum” value was 0/13; the “Metastasis Lymph nodes in mesentery” value is on record as 0/13; the “Metastasis Mesentery 3-20 metastasis(1-18 mm^3)” value was 0/13. For the same compound, in data set [2], the “Metastasis Mesentery < 3 metastasis(^2 mm^3)” value is listed as 0/13, the “Metastasis Pelvis” value was 0/13, the “Metastasis Site of surgical incision Large 80-280 mm^3” value was 0/13 and the “Metastasis Site of surgical incision Medium < 50 mm^3” value is listed as 1/13. For the same compound, in data set [2], the “Metastasis Site of surgical incision Small < 10 mm^3” value is reported as 2/13; the “Metastasis Spleen (serosa), gastrosplenic ligament” value is 0/13; the “Necrosis Primary tumor” value was 4/13; the “Tumor take rate Primary tumor” value is given as 13/13. Further, in data set [2], the “Body weight (m)” value is on record as “m = −2 (±5)%”.

For the compound `O=C1NC(=O)C(c2ccc(-c3ccccc3)cc2)(N2CCN(c3ccc([N+](=O)[O-])cc3)CC2)C(=O)N1` [RO 28-2653, 5-(4-biphenyl)-5-[N-(4-nitrophenyl)piperazinyl] barbituric acid], the “inhibition of primary tumor growth” value in data set [1] amounted to 86%. Moreover, the side effects entry in data set [3] is on record as “no side effects”. In data set [2], the “inhibition of primary tumor growth” value came out at 66%, the “Volume Primary tumor (Vm)” value is given as “Vm = 112 (±46) mm^3”, the “average number of metastases per animal” value turned out to be 2.5 metastases per animal and the “Metastasis Diaphragm” value is 3/13. Also, in data set [2], the “Metastasis Kidneys/Adrenal gland (capsule)” value was 1/13; the “Metastasis Ligament of the uterus/testis (serosa), seminal vesicles” value was 0/13; the “Metastasis Liver hilus” value is listed as 4/13; the “Metastasis Liver, in parenchyme” value is reported as 3/13. Also, in data set [2], the “Metastasis Liver, on serosa” value is 2/13; the “Metastasis Lung/Mediastinum” value is listed as 2/13; the “Metastasis Lymph nodes in mesentery” value was 2/13; the “Metastasis Mesentery 3-20 metastasis(1-18 mm^3)” value is recorded as 5/13. Besides, in data set [2], the “Metastasis Mesentery < 3 metastasis(^2 mm^3)” value is 0/13, the “Metastasis Pelvis” value is reported as 0/13, the “Metastasis Site of surgical incision Large 80-280 mm^3” value was 6/13 and the “Metastasis Site of surgical incision Medium < 50 mm^3” value is listed as 3/13. For the same compound, in data set [2], the “Metastasis Site of surgical incision Small < 10 mm^3” value was 2/13; the “Metastasis Spleen (serosa), gastrosplenic ligament” value is on record as 0/13; the “Necrosis Primary tumor” value was 1/13; the “Tumor take rate Primary tumor” value was 13/13. The “Body weight (m)” value in data set [2] is “m = −5 (±4)%”. In the data set with HOC-22 ovarian carcinoma, the increase in lifespan was determined as 63%.

For the origin of these results see patent US20040132739A1, “Combination of a gelatinase inhibitor and an anti-tumor agent, and uses thereof” (priority 2001, published 2004).
